One experiment concerns pancreatic cancer. The note with it: in combination with SBRT; cited from earlier work.
Experiment [1] deals with 3T3 mouse fibroblast cells. Briefly: MTS assay of radiosensitization after X-ray irradiation. The experiment is classed as cell-based. The note with it: 1 mM, 10 hours; X-rays at 4 and 6 Gy. The method, then: Our initial evaluation of radiosensitization via intracellular GNP formation was performed with 3T3 mouse fibroblast cells. […] Radiosensitization with intracellular GNC formation (i.e., delivery of Au^3+) was compared with pre-fabricated albumin-coated GNCs (Albumin-GNC) prepared according to work by Xie^46 and control cells without treatment via MTS assay (FIG. 3B).
3T3 cells were first incubated with either 1 mM of sodium chloroaurate or albumin-GNCs (0.1 mM Au^0)in cell culture media for 10 hours. Then, the cells including the nontreated control were irradiated with X-rays at dosages of 0, 4 and 6 Gy in the X-ray X-RAD 225 CX irradiator system (Precision).
In our future studies we will use a standard clonogenic survival assay for quantitation of the radiosensitization effect.
For orientation: Formazan colour is commonly taken as a measure of viable cells.

Experiment [2] deals with pancreatic cancer cells (MIAPACA2). Put plainly: Confocal fluorescence imaging of in situ GNC synthesis. The experiment is classed as cell-based, human. The method, then:
FIG. 4 presents fluorescence confocal images of non-cancerous (HPDE) and cancerous (MIAPaCa2) pancreatic cells treated with either 1 mM of Au^3+ gold ions or premade albumin-GNCs at 1 mM Au^0 for 24 hours. (From left to right) Cells: untreated; treated with albumin-GNCs; treated with Au^3+ gold ions. […] The strong red fluorescence in cancer cells indicated intracellular synthesis of GNCs from gold ions. Scale bars are 25 μm.
We compared in situ synthesis of GNCs by pancreatic cancer cells (MIAPACA2) and pancreatic noncancerous cells (HPDE) (FIG. 4). Confocal fluorescence images were obtained using a Leica TCS SP8 confocal microscope with 561 nm excitation and 610 nm emission optimized for detection of GNCs.

Regarding `Nc1ccn([C@@H]2O[C@H](CO)[C@@H](O)C2(F)F)c(=O)n1` [gemcitabine], in the experiment on pancreatic cancer, the “overall survival (OS)” value is given as 13.9 months.

In the case of `[Cl][Au-]([Cl])([Cl])[Cl].[Na+]` [sodium chloroaurate], the “radiosensitization by in situ synthetized GNCs as compared to Albumin-GNC control (MTS)” value in experiment [1] is listed as “significant increase in radiosensitization”. Moreover, the “intracellular distribution of fluorescence from GNCs” value in experiment [2] (MIAPACA2, optical sectioning) is reported as “uniformly distributed throughout the intracellular space with a significant fraction in nuclei”. In addition, in experiment [2] (MIAPACA2, 1 mM, 24 hours, 561 nm excitation, 610 nm emission), the “GNC fluorescence / GNC formation” value is “striking increase in GNC formation”.

Values taken from patent publication US20230256094A1, “CANCER RADIOSENSITIZATION BY IN SITU FORMATION OF GOLD NANOPARTICLES AND/OR GOLD NANOCLUSTERS” (BOARD OF REGENTS, THE UNIVERSITY OF TEXAS SYSTEM, priority 2020, published 2023).
